Laboratory results reported in ChEMBL document CHEMBL1201862, “PubChem BioAssay data set” (2004).
Active and inactive are the calls of the source.

Experiments:
[1] = NIH-3T3 fibroblast cytotoxicity, dose response, cytotoxicity control, cell-based, fluorescence, Alamar Blue, secondary assay (AID 2327); assay type: functional;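 also: NIH-3T3 mouse fibroblasts cultured with fluconazole at 8 µg/mL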
HeLa = experiment: Cytotoxicity counterscreen assay for transcriptional activators of heat shock protein 70 (Hsp70). [Related pubchem assays: 1203, 1252 ]; assay type: functional; conditions: Homo sapiens;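 also: cells exposed to compound for 16 hours before readout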
Beta-galactosidase [2] = target: T1, Beta-galactosidase (Escherichia coli, UniProt Q8VNN2); experiment: PubChem AID 485352; assay type: functional
T1 sequence (Q8VNN2 whole entry): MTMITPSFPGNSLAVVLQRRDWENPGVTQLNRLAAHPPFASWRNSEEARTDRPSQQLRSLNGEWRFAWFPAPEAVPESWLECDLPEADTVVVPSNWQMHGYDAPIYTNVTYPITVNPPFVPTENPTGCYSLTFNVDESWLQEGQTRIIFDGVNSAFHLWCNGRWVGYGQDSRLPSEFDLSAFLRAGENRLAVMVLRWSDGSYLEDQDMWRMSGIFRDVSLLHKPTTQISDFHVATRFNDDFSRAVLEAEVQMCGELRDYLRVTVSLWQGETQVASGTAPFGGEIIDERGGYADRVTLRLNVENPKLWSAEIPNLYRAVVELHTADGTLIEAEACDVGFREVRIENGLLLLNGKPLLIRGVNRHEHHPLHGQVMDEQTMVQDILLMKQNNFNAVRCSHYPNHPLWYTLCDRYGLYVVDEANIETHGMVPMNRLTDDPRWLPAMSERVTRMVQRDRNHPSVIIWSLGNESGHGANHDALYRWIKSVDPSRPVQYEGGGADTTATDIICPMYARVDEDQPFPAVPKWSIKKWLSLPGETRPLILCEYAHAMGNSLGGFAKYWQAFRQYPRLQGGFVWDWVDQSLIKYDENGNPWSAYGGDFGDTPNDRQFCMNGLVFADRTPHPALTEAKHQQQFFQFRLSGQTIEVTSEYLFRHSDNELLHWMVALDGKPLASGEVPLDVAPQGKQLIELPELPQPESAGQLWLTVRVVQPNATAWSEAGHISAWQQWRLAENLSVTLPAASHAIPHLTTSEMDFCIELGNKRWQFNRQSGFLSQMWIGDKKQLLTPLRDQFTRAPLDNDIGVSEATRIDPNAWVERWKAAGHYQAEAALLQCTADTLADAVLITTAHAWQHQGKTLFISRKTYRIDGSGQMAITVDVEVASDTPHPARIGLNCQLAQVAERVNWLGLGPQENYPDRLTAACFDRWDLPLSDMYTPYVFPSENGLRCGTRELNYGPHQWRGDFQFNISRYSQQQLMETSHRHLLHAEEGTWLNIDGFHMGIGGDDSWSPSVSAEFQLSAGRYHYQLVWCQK

[3] = fluconazole-exposed Candida albicans growth modulators – fluorescence, retest, confirmation (AID 2467); assay type: functional, cell-based
[4] = target: T2, Type-1 angiotensin II receptor (Homo sapiens, UniProt P30556); experiment: antagonism of angiotensin II type 1 receptor – cell-based, uHTS hits, selectivity assay for APJ receptor antagonist project, dose response (AID 463214); assay type: functional;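 also: antagonist potency against angiotensin II stimulated AT1 response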
T2 sequence (P30556 whole entry): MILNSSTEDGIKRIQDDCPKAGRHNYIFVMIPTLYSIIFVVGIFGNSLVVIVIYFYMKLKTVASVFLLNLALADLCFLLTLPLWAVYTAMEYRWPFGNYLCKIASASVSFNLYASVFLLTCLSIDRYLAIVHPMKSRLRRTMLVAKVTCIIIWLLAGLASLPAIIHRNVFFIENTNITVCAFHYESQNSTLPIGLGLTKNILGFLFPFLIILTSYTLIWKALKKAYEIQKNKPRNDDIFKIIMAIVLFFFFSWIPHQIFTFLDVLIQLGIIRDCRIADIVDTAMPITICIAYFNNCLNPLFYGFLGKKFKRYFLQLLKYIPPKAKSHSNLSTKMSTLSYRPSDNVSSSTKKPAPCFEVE

[5] = target: T3, Kappa-type opioid receptor (Homo sapiens, UniProt P41145); assay type: functional
T3 sequence (P41145 whole entry): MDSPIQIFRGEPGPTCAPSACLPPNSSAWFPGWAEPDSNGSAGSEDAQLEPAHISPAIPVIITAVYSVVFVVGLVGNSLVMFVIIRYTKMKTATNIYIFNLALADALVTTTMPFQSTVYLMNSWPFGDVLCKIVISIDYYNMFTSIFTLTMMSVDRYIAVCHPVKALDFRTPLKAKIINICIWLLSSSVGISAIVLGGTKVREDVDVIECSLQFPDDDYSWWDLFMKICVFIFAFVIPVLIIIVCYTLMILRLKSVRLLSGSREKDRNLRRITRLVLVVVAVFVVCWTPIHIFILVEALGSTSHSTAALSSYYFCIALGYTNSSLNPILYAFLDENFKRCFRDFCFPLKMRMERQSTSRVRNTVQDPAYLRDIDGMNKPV

Beta-galactosidase [6] = target: T1, Beta-galactosidase; assay type: functional
[7] = target: Sphingosine 1-phosphate receptor 4 (Homo sapiens, UniProt O95977); experiment: Fluorescence dose response cell-based high throughput screening assay for antagonists of the Sphingosine 1-Phosphate Receptor 4 (S1P4). [Related pubchem assays: 1524 (Confirmation in triplicates.), 1510 (Primary screen.)]; assay type: functional
Sphingosine 1-phosphate receptor 4, sequence (O95977 whole entry): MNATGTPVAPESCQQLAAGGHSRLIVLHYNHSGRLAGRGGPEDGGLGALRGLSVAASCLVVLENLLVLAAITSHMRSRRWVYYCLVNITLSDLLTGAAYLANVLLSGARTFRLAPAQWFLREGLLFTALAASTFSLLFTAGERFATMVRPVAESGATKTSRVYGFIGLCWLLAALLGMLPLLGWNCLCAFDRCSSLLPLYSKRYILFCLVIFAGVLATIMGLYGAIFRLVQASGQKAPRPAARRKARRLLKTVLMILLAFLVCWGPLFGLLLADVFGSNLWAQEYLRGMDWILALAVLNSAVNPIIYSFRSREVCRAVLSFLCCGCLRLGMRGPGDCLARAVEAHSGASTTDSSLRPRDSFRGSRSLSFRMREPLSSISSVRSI

[8] = target: T3, Kappa-type opioid receptor; assay type: functional; remark: listed apart in the source
[9] = target: Sphingosine 1-phosphate receptor 1 (Homo sapiens, UniProt P21453); assay type: functional;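 also: Tango beta-arrestin reporter U2OS cells stimulated with S1P near its EC80; inhibitor potency meaning antagonism of receptor activation by the natural agonist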
Sphingosine 1-phosphate receptor 1, sequence (P21453 whole entry): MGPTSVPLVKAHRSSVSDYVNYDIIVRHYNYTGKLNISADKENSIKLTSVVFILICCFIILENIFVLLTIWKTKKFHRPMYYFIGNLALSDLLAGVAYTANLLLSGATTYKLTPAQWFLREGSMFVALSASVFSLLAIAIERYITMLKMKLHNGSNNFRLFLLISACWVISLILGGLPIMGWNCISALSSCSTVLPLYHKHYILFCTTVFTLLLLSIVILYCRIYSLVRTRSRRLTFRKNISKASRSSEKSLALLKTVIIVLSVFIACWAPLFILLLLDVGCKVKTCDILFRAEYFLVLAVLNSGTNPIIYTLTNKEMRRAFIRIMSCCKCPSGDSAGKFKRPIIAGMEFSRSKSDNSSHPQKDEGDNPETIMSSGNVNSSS

[10] = target: T4, Replicative DNA helicase DnaB (Mycobacterium tuberculosis, UniProt P9WMR3); experiment: DnaB intein splicing inhibitors, dose response, biochemical, cell-free fluorescence (AID 449749); assay type: functional
T4 sequence (P9WMR3 whole entry): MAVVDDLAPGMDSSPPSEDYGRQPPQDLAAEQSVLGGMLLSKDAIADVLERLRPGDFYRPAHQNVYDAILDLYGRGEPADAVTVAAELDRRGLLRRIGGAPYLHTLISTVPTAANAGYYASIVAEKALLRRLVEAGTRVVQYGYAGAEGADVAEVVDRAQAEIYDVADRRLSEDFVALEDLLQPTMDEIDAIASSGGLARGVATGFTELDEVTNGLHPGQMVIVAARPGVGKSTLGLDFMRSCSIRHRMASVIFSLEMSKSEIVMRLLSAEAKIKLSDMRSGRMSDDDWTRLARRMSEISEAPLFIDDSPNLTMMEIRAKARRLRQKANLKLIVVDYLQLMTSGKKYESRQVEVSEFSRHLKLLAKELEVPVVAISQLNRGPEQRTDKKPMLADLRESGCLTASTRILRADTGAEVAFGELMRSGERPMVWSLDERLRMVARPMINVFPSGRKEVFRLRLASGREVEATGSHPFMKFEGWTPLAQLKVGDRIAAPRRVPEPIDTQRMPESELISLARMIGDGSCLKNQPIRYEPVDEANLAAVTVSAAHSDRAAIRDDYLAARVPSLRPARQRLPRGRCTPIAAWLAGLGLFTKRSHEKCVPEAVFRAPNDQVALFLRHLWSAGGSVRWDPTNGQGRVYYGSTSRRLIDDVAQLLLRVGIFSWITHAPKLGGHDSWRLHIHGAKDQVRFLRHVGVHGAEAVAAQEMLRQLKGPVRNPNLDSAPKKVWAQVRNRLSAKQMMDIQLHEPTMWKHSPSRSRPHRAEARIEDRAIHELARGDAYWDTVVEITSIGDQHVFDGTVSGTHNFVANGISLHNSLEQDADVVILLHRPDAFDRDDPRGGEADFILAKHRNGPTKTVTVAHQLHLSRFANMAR

[11] = target: Heat shock protein HSP 90-alpha (Homo sapiens, UniProt P07900); assay type: functional, organism-based
BJ = experiment: growth inhibition of engineered Ras-driven BJ cells – cell-based, alamar blue fluorescence, cherrypicked samples, dose response (AID 2631); assay type: functional; conditions: Homo sapiens;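 also: confirmatory dose-response assay in RAS-dependent BJ fibroblasts engineered with TERT, LT and ST, with cytotoxicity read by fluorescence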
Protein RecA = target: T5, Protein RecA (Mycobacterium tuberculosis, UniProt P9WHJ3); experiment: Fluorescence Cell-Free Homogeneous Dose Retest to Identify Inhibitors of RecA-Intein Splicing Activity. [Related pubchem assays (depositor defined):AID2097, AID2223, AID489010, AID492950]; assay type: functional
T5 sequence (P9WHJ3 whole entry): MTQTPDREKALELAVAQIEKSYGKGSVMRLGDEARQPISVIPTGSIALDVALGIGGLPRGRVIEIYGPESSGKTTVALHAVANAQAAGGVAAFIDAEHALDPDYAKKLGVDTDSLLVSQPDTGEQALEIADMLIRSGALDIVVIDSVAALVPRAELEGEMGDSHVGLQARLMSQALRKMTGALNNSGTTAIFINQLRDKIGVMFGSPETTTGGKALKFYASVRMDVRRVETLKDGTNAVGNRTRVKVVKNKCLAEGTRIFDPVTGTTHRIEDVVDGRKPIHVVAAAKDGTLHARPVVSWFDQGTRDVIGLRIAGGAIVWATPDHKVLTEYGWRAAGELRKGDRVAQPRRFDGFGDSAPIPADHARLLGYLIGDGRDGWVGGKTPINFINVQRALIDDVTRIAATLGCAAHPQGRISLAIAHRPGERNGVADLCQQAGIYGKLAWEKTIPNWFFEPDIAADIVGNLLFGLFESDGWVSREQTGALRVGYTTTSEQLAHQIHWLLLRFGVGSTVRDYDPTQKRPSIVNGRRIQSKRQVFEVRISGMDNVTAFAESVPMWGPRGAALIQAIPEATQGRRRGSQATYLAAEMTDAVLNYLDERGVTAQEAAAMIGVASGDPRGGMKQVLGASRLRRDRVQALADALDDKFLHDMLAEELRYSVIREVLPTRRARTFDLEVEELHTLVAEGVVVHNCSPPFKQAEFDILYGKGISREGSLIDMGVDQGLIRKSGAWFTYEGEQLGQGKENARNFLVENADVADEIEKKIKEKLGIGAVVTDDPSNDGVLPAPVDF

[12] = reduced cellular PGC1a acetyl-lysine signal – cell-based, cherry-picked samples, dose response (AID 720514); assay type: functional;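 also: potency may reflect raised or lowered acetylation signal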
[13] = A549 cell cytotoxicity, dose response, cytotoxicity control, plate reader, cherry-pick, antagonist series (AID 743412); assay type: functional, cell-based
[14] = toxicity toward HepG2 liver cells – cell-based, plate reader, cherry-pick, antagonist series, cytotoxicity control, dose response (AID 743416); assay type: functional
[15] = blockers of bursicon-stimulated LGR2 cAMP reporter – cell-based, HEK293, CRE-luciferase reporter, cherry pick, set 2, dose response (AID 743343); assay type: functional;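 also: transfected cells were stimulated with diluted bursicon conditioned medium after compound addition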
[16] = blockade of melanocortin 4 receptor signaling – cell-based, plate reader, cherry pick, counter-screen for LGR2 antagonist project, dose response (AID 743444); assay type: functional;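 also: transfected HEK 293 cells stimulated with alpha-MSH peptide; potency of inhibitors of the alpha-MSH evoked signal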
[17] = viability loss in HEK293 cells – cell-based, plate reader, cherry-picked samples, cytotoxicity control, dose response (AID 743446); assay type: functional
Vero [18] = experiment: Vero 76 cell viability after compound exposure – Vero 76 cells, synthesized analogs, cytotoxicity control for West Nile virus antiviral project, SAR follow-up (AID 2414); assay type: functional; conditions: Chlorocebus sabaeus
Vero [19] = experiment: Vero cell viability after compound exposure – synthesized analogs, set II, cytotoxicity control for West Nile virus antiviral project, SAR follow-up (AID 2402); assay type: functional; conditions: Chlorocebus sabaeus
[20] = A Cell Based Assay for the Identification of Probe candidate Compounds with Anti- Venezuelan Equine Encephalitis virus. [Related pubchem assays: 2409, 2419, 1621, 2238, 2405, 2024, 2065, 2402, 2414, 1635, 1650, 2244 ]; assay type: functional

With `CC(C)(C)c1ccc(-n2nc(C#N)c(Cl)cc2=O)cc1` the EC50 [1] was 5.04 µM (inconclusive), the CC50 (HeLa) was > 3.67 µM (not active) and the EC50 (Beta-galactosidase [2]) was > 40 µM (inactive). The EC50 [3] was > 38 µM (not active), the IC50 [4] was 38.5 µM (not active) and the IC50 [5] was 3.68 µM (active). The EC50 (Beta-galactosidase [6]) was > 31.5 µM (inactive), the IC50 [7] was 1.87 µM (active) and the IC50 [8] was 4.02 µM. The IC50 [9] was 9.04 µM (active), the AC50 [10] was 746 nM (active) and the AC50 [11] was 3.8 µM (active). For the same molecule, the EC50 (BJ) was 1.13 µM (active), the EC50 (Protein RecA) was 989 nM (active) and the AC50 [12] was 2.85 µM (active). For the same molecule, the AC50 [13] was 2.83 µM (active), the AC50 [14] was 2.81 µM (active) and the AC50 [15] was 12 µM (active). For the same molecule, the AC50 [16] was 14.4 µM (active) and the AC50 [17] was 6.44 µM (active).
In the case of `Cc1cccc2c(=O)n(-c3ccccc3)c(SCC(=O)Nc3ccc4c(c3)CCC4)nc12`, the CC50 (Vero [18]) is reported as > 133 µM (active), the CC50 (Vero [19]) is reported as > 200 µM (active) and the IC50 [20] is reported as > 133 µM (active).
